Measured values: US12690589B2, “Herbicidal compositions comprising pyroxasulfone” (BASF SE, priority 2024, dated 2026)

How the values were obtained:
Assay in all cases: Post-emergence application in field trials, herbicidal activity (damage scale 0 to 100%)
Assay type in all cases: in vivo
[1] = system: Setaria verticillata (SETVE)
Method: (§1) In the examples below, using the method of S. R. Colby (1967) “Calculating synergistic and antagonistic responses of herbicide combinations”, Weeds 15, p. 22ff., the value E, which is expected if the activity of the individual active compounds is only additive, was calculated:
(§2) [formula] • wherein • X=percent activity using active herbicide A at an application rate a; • Y=percent activity using active herbicide B (e.g. pyroxasulfone) at an application rate b; • E=expected activity (in %) by A+B at application rates a+b.
(§3) For 3-component mixtures the synergistic response was calculated as described in: Ferry, Nancy; Stanley, Bruce H.; and Armel, Gregory (2005). “DESIGN AND ANALYSIS OF BIOLOGICAL ASSAYS OF MIXTURES,” Conference on Applied Statistics in Agriculture. https://doi.org/10.4148/2475-7772.1133. According to this publication, the Colby calculation can be generalized to a third mixing partner, Z, employing the following formula: […]
(§4) If the value found experimentally is higher than the value E calculated according to Colby, a synergistic effect is present.
(§5) On field test sites, natural weed infestation or seeded weeds were treated post-emergence of the weeds.
(§6) In the field trials, the weeds were treated as indicated below.
(§7) In the following experiments, the herbicidal activity for the individual herbicidal compositions (solo and mixture applications) was assessed at the indicated days after treatment (DAT). The assessments for the damage on undesired weeds caused by the composition was carried out using a scale from 0 to 100%, compared to the untreated control plants. Here, 0 means no damage and 100 means complete destruction of the plants.
(§8) Herbicide A-1 (342 g/l) and pyroxasulfone (500 g/l) were, together with addition of 0.25 v/v % MSO (methylated seed oil) as adjuvant, formulated in 200 l/ha water as distribution medium and sprayed with commercial flat fan nozzles.
(§9) Herbicide A-1 (342 g/l), pyroxasulfone (500 g/l) and trifludimoxazin (500 g/l) were, together with addition of 0.25 v/v % MSO (methylated seed oil) as adjuvant, formulated in 200 l/ha water as distribution medium and sprayed with commercial flat fan nozzles.
(§10) Herbicide A-1 (342 g/I), pyroxasulfone (500 g/l) and glyphosate-isopropylammonium (356 g/l) were, together with addition of 0.25 v/v % MSO (methylated seed oil) as adjuvant, formulated in 200 l/ha water as distribution medium and sprayed with commercial flat fan nozzles.
(§11) Herbicide A-1 (342 g/l), pyroxasulfone (500 g/l) and glufosinate-P-ammonium (211 g/l) were, together with addition of 0.25 v/v % MSO (methylated seed oil) as adjuvant, formulated in 200 l/ha water as distribution medium and sprayed with commercial flat fan nozzles.
(§12) Herbicide A-1 (342 g/l), pyroxasulfone (500 g/l) and 2,4-D-choline (456 g/l) were, together with addition of 0.25 v/v % MSO (methylated seed oil) as adjuvant, formulated in 200 l/ha water as distribution medium and sprayed with commercial flat fan nozzles.

[2] = system: Zea mays (ZEAMX)
Method: as §1, §2, §3, §4, §5, §6, §7, §8, §9, §10, §11, §12

[3] = system: Hordeum vulgare (HORVW)
Method: as §1, §2, §3, §4, §5, §6, §7, §8, §9, §10, §11, §12

[4] = system: Digitaria sanguinalis (DIGSA); settings: 7 DAT; stage 22, height 10-15 cm; g ai/ha A-1 12.5, B 70, C-4 12.5
Method: as §1, §2, §3, §4, §5, §6, §7, §8, §9, §10, §11, §12

CCOC(=O)COc1ccccc1Oc1nc(-n2c(=O)cc(C(F)(F)F)n(C)c2=O)c(F)cc1Cl [A-1, ethyl 2-[2-[[3-chloro-5-fluoro-6-[3-methyl-2,6-dioxo-4-(trifluoromethyl)pyrimidin-1-yl]-2-pyridyl]oxy]phenoxy]acetate] was tested, and the “% Herbicidal activity” value ([1]; 7 DAT, stage 21-23, height 8-16 cm, g ai/ha A-1 18, B 70, C-8 840) was 75%, the “% Herbicidal activity” value ([1]; 7 DAT, stage 21-23, height 8-16 cm, g ai/ha A-1 18, B 70, C-12 252) was 70% and the “% Herbicidal activity” value ([1]; 7 DAT, stage 21-23, height 8-16 cm, g ai/ha A-1 18, B 90, C-4 12.5) was 80%. For the same compound, the “% Herbicidal activity” value ([1]; 7 DAT, stage 21-23, height 8-16 cm, g ai/ha A-1 18, B 90, C-8 840) was 75%, the “% Herbicidal activity” value ([1]; 7 DAT, stage 21-23, height 8-16 cm, g ai/ha A-1 18, B 90, C-12 252) was 70% and the “% Herbicidal activity” value ([1]; 21 DAT, stage 21-23, height 8-16 cm, g ai/ha A-1 18, B 90, C-12 252) was 65%. The “% Herbicidal activity” value ([1]; 42 DAT, stage 21-23, height 8-16 cm, g ai/ha A-1 12.5, B 70) was 50%, the “% Herbicidal activity” value ([1]; 42 DAT, stage 21-23, height 8-16 cm, g ai/ha A-1 12.5, B 70, C-12 252) was 50% and the “% Herbicidal activity” value ([1]; 42 DAT, stage 21-23, height 8-16 cm, g ai/ha A-1 18, B 70) was 70%. The “% Herbicidal activity” value ([1]; 42 DAT, stage 21-23, height 8-16 cm, g ai/ha A-1 18, B 90, C-12 252) was 50%, the “% Herbicidal activity” value ([1]; SETVE, growth stage 21-23, height 8-16 cm, A-1 12.5 g ai/ha, 7 DAT, Table 4.1) was 75% and the “% Herbicidal activity” value ([1]; SETVE, growth stage 21-23, height 8-16 cm, A-1 12.5 g ai/ha, 21 DAT, Table 4.3) was 70%. The “% Herbicidal activity” value ([1]; SETVE, growth stage 21-23, height 8-16 cm, A-1 18 g ai/ha, 7 DAT, Table 4.1) was 75%, the “% Herbicidal activity” value ([1]; SETVE, growth stage 21-23, height 8-16 cm, A-1 18 g ai/ha, 21 DAT, Table 4.3) was 75% and the “% Herbicidal activity” value ([1]; Table 8.1, 7 DAT, stage 21-23, height 8-16 cm, g ai/ha A-1 18, B 70, C-12 1066) was 75%. For the same compound, the “% Herbicidal activity” value ([1]; Table 8.2, 21 DAT, stage 21-23, height 8-16 cm, g ai/ha A-1 12.5, B 70, C-12 1066) was 70%, the “% Herbicidal activity” value ([1]; Table 8.4, 42 DAT, stage 21-23, height 8-16 cm, g ai/ha A-1 12.5, B 70, C-12 1066) was 60% and the “% Herbicidal activity” value ([2]; 7 DAT, stage 15-16, height 27-33 cm, g ai/ha A-1 12.5, B 70, C-12 252) was 40%. For the same compound, the “% Herbicidal activity” value ([2]; 7 DAT, stage 15-16, height 27-33 cm, g ai/ha A-1 18, B 70, C-12 252) was 40%, the “% Herbicidal activity” value ([2]; 7 DAT, stage 15-16, height 27-33 cm, g ai/ha A-1 18, B 90, C-4 12.5) was 55% and the “% Herbicidal activity” value ([2]; 7 DAT, stage 15-16, height 27-33 cm, g ai/ha A-1 18, B 90, C-12 252) was 40%. The “% Herbicidal activity” value ([2]; 21 DAT, stage 15-16, height 27-33 cm, g ai/ha A-1 12.5, B 70, C-12 252) was 25%, the “% Herbicidal activity” value ([2]; 21 DAT, stage 15-16, height 27-33 cm, g ai/ha A-1 18, B 70, C-12 252) was 30% and the “% Herbicidal activity” value ([2]; 21 DAT, stage 15-16, height 27-33 cm, g ai/ha A-1 18, B 90, C-12 252) was 30%. The “% Herbicidal activity” value ([2]; 42 DAT, stage 15-16, height 27-33 cm, g ai/ha A-1 12.5, B 70, C-12 252) was 15%, the “% Herbicidal activity” value ([2]; 42 DAT, stage 15-16, height 27-33 cm, g ai/ha A-1 18, B 70, C-12 252) was 20% and the “% Herbicidal activity” value ([2]; 42 DAT, stage 15-16, height 27-33 cm, g ai/ha A-1 18, B 90, C-12 252) was 20%. For the same compound, the “% Herbicidal activity” value ([2]; Table 8.1, 7 DAT, stage 15-16, height 50-60 cm, g ai/ha A-1 18, B 70, C-12 1066) was 85%, the “% Herbicidal activity” value ([2]; Table 8.1, 7 DAT, stage 15-16, height 50-60 cm, g ai/ha A-1 18, B 90, C-12 1066) was 85% and the “% Herbicidal activity” value ([2]; ZEAMX, growth stage 15-16, height 40-60 cm, A-1 18 g ai/ha, 7 DAT, Table 4.2) was 85%. The “% Herbicidal activity” value ([2]; ZEAMX, growth stage 15-16, height 40-60 cm, A-1 18 g ai/ha, 21 DAT, Table 4.4) was 80%, the “% Herbicidal activity” value ([3]; 7 DAT, stage 23-29, height 20-25 cm, g ai/ha A-1 12.5, B 70, C-12 252) was 70% and the “% Herbicidal activity” value ([3]; 7 DAT, stage 23-29, height 20-25 cm, g ai/ha A-1 18, B 70, C-12 252) was 70%. The “% Herbicidal activity” value ([3]; 7 DAT, stage 23-29, height 20-25 cm, g ai/ha A-1 18, B 90, C-12 252) was 70%, the “% Herbicidal activity” value ([3]; 21 DAT, stage 23-29, height 20-25 cm, g ai/ha A-1 12.5, B 70, C-12 252) was 70% and the “% Herbicidal activity” value ([3]; 21 DAT, stage 23-29, height 20-25 cm, g ai/ha A-1 18, B 70, C-12 252) was 70%. For the same compound, the “% Herbicidal activity” value ([3]; 21 DAT, stage 23-29, height 20-25 cm, g ai/ha A-1 18, B 90, C-12 252) was 70%, the “% Herbicidal activity” value ([3]; 28 DAT, stage 23-29, height 20-25 cm, g ai/ha A-1 12.5, B 70, C-12 252) was 70% and the “% Herbicidal activity” value ([3]; 28 DAT, stage 23-29, height 20-25 cm, g ai/ha A-1 18, B 70, C-12 252) was 70%. The “% Herbicidal activity” value ([3]; 28 DAT, stage 23-29, height 20-25 cm, g ai/ha A-1 18, B 90, C-12 252) was 70%, the “% Herbicidal activity” value ([3]; HORVW, growth stage 23-29, height 20-25 cm, A-1 12.5 g ai/ha, 7 DAT, Table 4.2) was 70% and the “% Herbicidal activity” value ([3]; HORVW, growth stage 23-29, height 20-25 cm, A-1 12.5 g ai/ha, 21 DAT, Table 4.4) was 70%. For the same compound, the “% Herbicidal activity” value ([3]; HORVW, growth stage 23-29, height 20-25 cm, A-1 12.5 g ai/ha, 28 DAT, Table 4.5) was 70%, the “% Herbicidal activity” value ([3]; HORVW, growth stage 23-29, height 20-25 cm, A-1 18 g ai/ha, 7 DAT, Table 4.2) was 70% and the “% Herbicidal activity” value ([3]; HORVW, growth stage 23-29, height 20-25 cm, A-1 18 g ai/ha, 21 DAT, Table 4.4) was 70%. For the same compound, the “% Herbicidal activity” value ([3]; HORVW, growth stage 23-29, height 20-25 cm, A-1 18 g ai/ha, 28 DAT, Table 4.5) was 70% and the “% Herbicidal activity” value [4] was 80%.
